Assay results reported in ChEMBL document CHEMBL3621136, “Design, synthesis, and biological and docking studies of novel epipodophyllotoxinchalcone hybrids as potential anticancer agents” (Medchemcomm, 2015).
pIC50: −log10 of the molar value.

Tests used:
Assay type in all cases: functional, cell-based
SW-620 = experiment: Cytotoxicity against human SW620 cells assessed as growth inhibition after 48 hrs by SRB assay; details: SW-620, 48 h
SK-N-SH = experiment: Cytotoxicity against human SK-N-SH cells assessed as growth inhibition after 48 hrs by SRB assay
DU-145 = experiment: Cytotoxicity against human DU145 cells assessed as growth inhibition after 48 hrs by SRB assay; details: DU-145, 48 h
HCT-15 = experiment: Cytotoxicity against human HCT15 cells assessed as growth inhibition after 48 hrs by SRB assay; details: HCT-15, 48 h
HeLa = experiment: Cytotoxicity against human HeLa cells assessed as growth inhibition after 48 hrs by SRB assay
COLO 205 = experiment: Cytotoxicity against human COLO205 cells assessed as growth inhibition after 48 hrs by SRB assay; details: COLO 205, 48 h

Compound	pIC50 (SW-620)	pIC50 (SK-N-SH)	pIC50 (DU-145)	pIC50 (HCT-15)	pIC50 (HeLa)	pIC50 (COLO 205)
COc1cc([C@@H]2c3cc4c(cc3[C@@H](n3cc(COc5ccc(C(C)=O)cc5)nn3)[C@H]3COC(=O)[C@H]23)OCO4)cc(OC)c1OC	4.84	4.81	4.87	4.87	4.73	4.73
COc1cc([C@@H]2c3cc4c(cc3[C@@H](n3cc(COc5ccc(/C=C/C(C)=O)cc5)nn3)[C@H]3COC(=O)[C@H]23)OCO4)cc(OC)c1OC	4.99	4.84	4.95	4.79	–	5.12
COc1cc(/C=C/C(C)=O)ccc1OCc1cn([C@@H]2c3cc4c(cc3[C@@H](c3cc(OC)c(OC)c(OC)c3)[C@H]3C(=O)OC[C@@H]32)OCO4)nn1	5.47	5.00	–	4.98	5.47	5.05
COc1cc([C@@H]2c3cc4c(cc3[C@@H](n3cc(COc5ccc(C(=O)/C=C/c6ccccc6)cc5)nn3)[C@H]3COC(=O)[C@H]23)OCO4)cc(OC)c1OC	5.69	5.38	4.52	4.89	5.27	5.04
COc1cc([C@@H]2c3cc4c(cc3[C@@H](n3cc(COc5ccc(/C=C/C(=O)c6ccccc6)cc5)nn3)[C@H]3COC(=O)[C@H]23)OCO4)cc(OC)c1OC	5.04	4.59	4.52	4.82	4.72	4.53
COc1cc([C@@H]2c3cc4c(cc3[C@@H](n3cc(COc5ccc(C(=O)/C=C/c6ccc(F)cc6)cc5)nn3)[C@H]3COC(=O)[C@H]23)OCO4)cc(OC)c1OC	5.62	5.47	5.19	4.92	–	4.88
COc1cc([C@@H]2c3cc4c(cc3[C@@H](n3cc(COc5ccc(C(=O)/C=C/c6cccc(F)c6)cc5)nn3)[C@H]3COC(=O)[C@H]23)OCO4)cc(OC)c1OC	5.28	4.91	4.88	4.81	4.85	5.14
COc1cc([C@@H]2c3cc4c(cc3[C@@H](n3cc(COc5ccc(C(=O)/C=C/c6ccccc6F)cc5)nn3)[C@H]3COC(=O)[C@H]23)OCO4)cc(OC)c1OC	5.09	5.17	4.69	4.89	4.76	–
COc1cc([C@@H]2c3cc4c(cc3[C@@H](n3cc(COc5ccc(C(=O)/C=C/c6cccc(C)c6)cc5)nn3)[C@H]3COC(=O)[C@H]23)OCO4)cc(OC)c1OC	5.19	5.15	5.03	–	4.91	5.08
COc1ccc(/C=C/C(=O)c2ccc(OCc3cn([C@@H]4c5cc6c(cc5[C@@H](c5cc(OC)c(OC)c(OC)c5)[C@H]5C(=O)OC[C@@H]54)OCO6)nn3)cc2)cc1	4.95	5.14	4.99	5.21	–	4.91
COc1cc([C@@H]2c3cc4c(cc3[C@@H](n3cc(COc5ccc(C(C)=O)cc5)nn3)[C@H]3COC(=O)[C@H]23)OCO4)cc(OC)c1O	4.94	4.94	4.78	4.92	4.72	4.83
COc1cc([C@@H]2c3cc4c(cc3[C@@H](n3cc(COc5ccc(/C=C/C(C)=O)cc5)nn3)[C@H]3COC(=O)[C@H]23)OCO4)cc(OC)c1O	5.12	4.99	4.92	5.17	4.88	–
COc1cc(/C=C/C(C)=O)ccc1OCc1cn([C@@H]2c3cc4c(cc3[C@@H](c3cc(OC)c(O)c(OC)c3)[C@H]3C(=O)OC[C@@H]32)OCO4)nn1	5.25	5.26	5.19	4.91	5.30	4.74
COc1cc([C@@H]2c3cc4c(cc3[C@@H](n3cc(COc5ccc(C(=O)/C=C/c6ccccc6)cc5)nn3)[C@H]3COC(=O)[C@H]23)OCO4)cc(OC)c1O	6.19	6.18	4.92	5.02	5.23	4.91
COc1cc([C@@H]2c3cc4c(cc3[C@@H](n3cc(COc5ccc(/C=C/C(=O)c6ccccc6)cc5)nn3)[C@H]3COC(=O)[C@H]23)OCO4)cc(OC)c1O	5.36	5.08	5.26	5.17	5.04	–
COc1cc([C@@H]2c3cc4c(cc3[C@@H](n3cc(COc5ccc(C(=O)/C=C/c6ccc(F)cc6)cc5)nn3)[C@H]3COC(=O)[C@H]23)OCO4)cc(OC)c1O	6.46	6.41	4.92	4.91	5.35	4.90
COc1cc([C@@H]2c3cc4c(cc3[C@@H](n3cc(COc5ccc(C(=O)/C=C/c6cccc(F)c6)cc5)nn3)[C@H]3COC(=O)[C@H]23)OCO4)cc(OC)c1O	5.27	5.35	5.13	–	5.19	5.29
COc1cc([C@@H]2c3cc4c(cc3[C@@H](n3cc(COc5ccc(C(=O)/C=C/c6ccccc6F)cc5)nn3)[C@H]3COC(=O)[C@H]23)OCO4)cc(OC)c1O	4.90	5.13	5.03	4.82	–	4.91
COc1cc([C@@H]2c3cc4c(cc3[C@@H](n3cc(COc5ccc(C(=O)/C=C/c6cccc(C)c6)cc5)nn3)[C@H]3COC(=O)[C@H]23)OCO4)cc(OC)c1O	4.94	4.87	4.69	4.91	5.03	4.81
COc1ccc(/C=C/C(=O)c2ccc(OCc3cn([C@@H]4c5cc6c(cc5[C@@H](c5cc(OC)c(O)c(OC)c5)[C@H]5C(=O)OC[C@@H]54)OCO6)nn3)cc2)cc1	4.99	4.81	4.90	5.13	5.17	–
COc1cc([C@@H]2c3cc4c(cc3[C@@H](O[C@@H]3O[C@@H]5CO[C@@H](C)O[C@H]5[C@H](O)[C@H]3O)[C@H]3COC(=O)[C@H]23)OCO4)cc(OC)c1O [ETOPOSIDE]	4.88	5.04	4.78	4.91	4.98	4.85
